Activity and Ki data for 10 compounds are collected here from ChEMBL document CHEMBL1144378, “Analogues of the neuroprotective tripeptide Gly-Pro-Glu (GPE): synthesis and structure-activity relationships” (Bioorg Med Chem Lett, 2005).

Structures are written as SMILES. Calls of active or inactive are those of the source. The calls are words filed in the database; no cut-off is given here.

For test [1], the target named is Glutamate NMDA receptor (Rattus norvegicus) (UniProt P35439+Q00959+Q00960+Q00961+Q62645+Q8VHN2+Q9R1M7). Briefly: Displacement of L-[3H]glutamate from N-methyl-D-aspartate glutamate receptor in rat brain synaptic membranes; No displacement up to 100 uM. It counts as cell membranes. The conditions noted are these: Membrane.
Test [2] has as its target Glutamate NMDA receptor. Briefly: Displacement of L-[3H]glutamate from N-methyl-D-aspartate glutamate receptor in rat brain synaptic membranes. The format is cell membranes, Membrane.

With `NCC(=O)N1CSC[C@@H]1C(=O)N[C@@H](CCC(=O)O)C(=O)O`, the result in test [1] was inactive.

As to `NCC(=O)N1CCC[C@@H]1C(=O)N[C@@H](CCC(=O)O)C(=O)O`, the result in test [1] was inactive.

Take `NCC(=O)N1CCC[C@H]1C(=O)N[C@H](CCC(=O)O)C(=O)O`: in test [1], the result was inactive.

Regarding `NCC(=O)N1CCC[C@H]1C(=O)N[C@@H](CCCC(=O)O)C(=O)O`, in test [1], the outcome was inactive.

As for `NCC(=O)N1CCC[C@@H]1C(=O)N[C@H](CCC(=O)O)C(=O)O`, the outcome in test [1] was inactive.

On to `NCC(=O)N1CCC[C@H]1C(=O)N[C@@H](CC(=O)O)C(=O)O`, for which, in test [1], the result was inactive.

Consider `N[C@H](CCCP(=O)(O)O)C(=O)O`, for which, in test [2], the Ki (as a rule, the dissociation constant of the complex between target and ligand, obtained from inhibition or displacement) amounted to 3.83 µM.

Consider `NCC(=O)N1CCC[C@H]1C(=O)N[C@H](CC(=O)O)C(=O)O`, for which the result in test [1] was inactive.

As for `NCC(=O)N1CCC[C@H]1C(=O)N[C@H](CCCC(=O)O)C(=O)O`, in test [1], the result was inactive.

In the case of `CC1(C)SC[C@H](C(=O)N[C@@H](CCC(=O)O)C(=O)O)N1C(=O)CN`, the result in test [1] was inactive.
